In US12583851B2, “Heteroaryl-substituted pyrazine derivatives as pesticides” (Elanco Animal Health GmbH, priority 2019, dated 2026) one finds pest or weed control and mortality data, which are given here for 19 molecules.

Holding throughout (type): in vivo
In test [1] the test system is larvae of the banded cucumber beetle (Diabrotica balteata). Briefly: Diabrotica balteata spray test. The note with it: 168 h, after 7 days, read-out: efficacy (seedling growth); for pest or weed control at 32 µg/disc, 100 g/ha: 100 g/ha (=32 μg/well); for pest or weed control at 6.4 µg/disc, 20 g/ha: 20 g/ha (=6.4 μg/well). As for the experimental part:
Diabrotica balteata—Spray Test
Solvent: 78.0 parts by weight of acetone • • 1.5 parts by weight of dimethylformamide
(§1) Emulsifier: alkylarylpolyglycol ether
To produce a suitable preparation of active compound, 1 part by weight of active compound is mixed with the stated amount of solvent, and the concentrate is diluted with water, containing an emulsifier concentration of 1000 ppm, to the desired concentration. Further test concentrations are prepared by dilution with emulsifier containing water.
Soaked wheat seeds (Triticum aestivum) are placed in a multiple well plate filled with agar and some water and are incubated for 1 day to germinate (5 seeds per well). The germinated wheat seeds are sprayed with a test solution containing the desired concentration of the active ingredient. Afterwards each unit is infected with 10-20 larvae of the banded cucumber beetle (Diabrotica balteata).
After 7 days efficacy in % is determined. 100% means all the seedlings have grown up like in the untreated, uninfected control; 0% means none of the seedlings have grown.

Test [2] has as its system fall armyworm larvae (Spodoptera frugiperda). Put plainly: Spodoptera frugiperda spray test. The note with it: 168 h, maize leaf sections, after 7 days. As for the experimental part: Spodoptera fruaiperda—Spray Test
Solvent: 78.0 parts by weight acetone • 1.5 parts by weight dimethylformamide
as §1
To produce a suitable preparation of active compound, 1 part by weight of active compound is mixed with the stated amount of solvents and is diluted with water, containing an emulsifier concentration of 1000 ppm, to the desired concentration. Further test concentrations are prepared by dilution with emulsifier containing water.
Maize (Zea mays) leaf sections are sprayed with a preparation of the active ingredient of the desired concentration. Once dry, the leaf sections are infested with fall armyworm larvae (Spodoptera frugiperda).
After 7 days mortality in % is determined. 100% means all caterpillars have been killed and 0% means none of the caterpillars have been killed.

Test [3] concerns Rhipicephalus (Boophilus) microplus larvae (strain Parkhurst, resistant against synthetic pyrethroids). Put plainly: Rhipicephalus (Boophilus) microplus in-vitro contact test, larval cattle tick. The note with it: after 48 hours, read-out: efficacy (larvae dead or moribund); for pest or weed control at 1 µg/cm2, 100 g/ha: 1 μg/cm^2 (=100 g/ha); for pest or weed control at 5 µg/cm2, 500 g/ha: 5 μg/cm^2 (=500 g/ha). Here is the method:
Rhipicephalus (Boophilus) microplus—In-Vitro Contact Tests Larval Cattle Tick (Strain Parkhurst, Resistant Against Synthetic Pyrethroids)
9 mg compound is solved in 1 mL acetone and diluted with acetone to the desired concentration. […] the test solution is filled in 25 mL glass test tubes and homogeneously distributed on the inner walls by rotation and tilting on a shaking device (2 h at 30 rpm). With a compound concentration of 900 ppm, an inner surface of 44.7 cm^2 and a homogeneous distribution, a dose of 5 μg/cm^2 is achieved.
After the solvent has evaporated, each test tube is filled with 20-50 cattle tick larvae (Rhipicephalus microplus), closed with a perforated lid and incubated in a horizontal position at 85% relative humidity and 27° C. in an incubator. After 48 hours efficacy is determined. The larvae are patted on the ground of the tubes and negative geotactic behaviour is recorded.
An efficacy of 100% means all larvae are dead or moribund; 0% means no larvae are dead or moribund.

In general, mortality refers to the share of the test organisms that died. Low readings indicate a weak lethal effect, high ones a strong lethal effect.

As for `CCN(C)C(=O)c1ccc(-c2nccnc2C(C)NC(=O)c2cc(Cl)cc(OC(F)(F)F)c2)nc1` (racemic) [Example I-36, (rac)-6-(3-{1-[3-Chloro-5-(trifluoromethoxy)benzamido]ethyl}pyrazin-2-yl)-N-ethyl-N-methylpyridine-3-carboxamide], in test [1], the pest or weed control at 32 µg/disc, 100 g/ha worked out at 100%. In test [2], this molecule had a mortality at 100 g/ha of 100%.

With `CC(NC(=O)c1cc(C(F)(F)F)cc(C(F)(F)F)c1)c1nccnc1-c1ccc(C(=O)N(C)CC#N)cn1` (racemic) [Example I-39, (rac)-6-(3-{1-[3,5-Bis(trifluoromethyl)benzamido]ethyl}pyrazin-2-yl)-N-(cyanomethyl)-N-methylpyridine-3-carboxamide], the pest or weed control at 32 µg/disc, 100 g/ha in test [1] came to 100%. The same molecule yielded a mortality at 100 g/ha in test [2] of 100%.

For `CC(NC(=O)c1cc(C#N)cc(C(F)(F)F)c1)c1nccnc1-c1ccc(C(F)(F)F)cn1` (racemic) [Example I-41, (rac)-3-Cyano-5-(trifluoromethyl)-N-[1-{3-[5-(trifluoromethyl)pyridin-2-yl]pyrazin-2-yl}ethyl]benzamide], in test [1], the pest or weed control at 6.4 µg/disc, 20 g/ha came out at 100%. Moreover, the mortality at 100 g/ha in test [2] was 83%.

As to `CC(NC(=O)c1cc(C(F)(F)F)cc(C(F)(F)F)c1)c1nccnc1-c1ncc(C(=O)N2CCOCC2)s1` (racemic) [Example I-58, (rac)-N-[1-{3-[5-(Morpholine-4-carbonyl)-1,3-thiazol-2-yl]pyrazin-2-yl}ethyl]-3,5-bis(trifluoromethyl)benzamide], in test [3], the pest or weed control at 1 µg/cm2, 100 g/ha is 100% and the pest or weed control at 5 µg/cm2, 500 g/ha stood at 90%. The mortality at 100 g/ha in test [2] is 100%.

Take `CC(NC(=O)c1cc(C(F)(F)F)cc(C(F)(F)F)c1)c1nccnc1-c1ncc(C(=O)N(C)CC#N)s1` (racemic) [Example I-67, (rac)-2-(3-{1-[3,5-Bis(trifluoromethyl)benzamido]ethyl}pyrazin-2-yl)-N-(cyanomethyl)-N-methyl-1,3-thiazole-5-carboxamide]: in test [1], the pest or weed control at 32 µg/disc, 100 g/ha stood at 100%. The mortality at 100 g/ha in test [2] turned out to be 100%.

As for `CC(NC(=O)c1cc(Cl)cc(S(C)(=O)=O)c1)c1nccnc1-c1ncc(C(=O)N(C)CC#N)s1` (racemic) [Example I-77, (rac)-2-(3-{1-[3-Chloro-5-(methanesulfonyl)benzamido]ethyl}pyrazin-2-yl)-N-(cyanomethyl)-N-methyl-1,3-thiazole-5-carboxamide], in test [1], the pest or weed control at 32 µg/disc, 100 g/ha worked out at 100%. In test [2], this molecule registered a mortality at 100 g/ha of 100%.

Regarding `CC(NC(=O)c1cc(Br)cc(C#N)c1)c1nccnc1-n1cc(Cl)cn1` (racemic) [Example I-98, (rac)-3-Bromo-N-{1-[3-(4-chloro-1H-pyrazol-1-yl)pyrazin-2-yl]ethyl}-5-cyanobenzamide], in test [1], the pest or weed control at 6.4 µg/disc, 20 g/ha was found to be 100% and the pest or weed control at 32 µg/disc, 100 g/ha worked out at 100%. The molecule further had a mortality at 100 g/ha in test [2] of 100%.

`CC(NC(=O)c1cc(Cl)cc(S(=O)(=O)C2CC2)c1)c1nccnc1-n1cc(C#N)cn1` (racemic) [Example I-101, (rac)-3-Chloro-N-{1-[3-(4-cyano-1H-pyrazol-1-yl)pyrazin-2-yl]ethyl}-5-(cyclopropanesulfonyl)benzamide] registered a mortality at 100 g/ha in test [2] of 100%.

In the case of `CC(NC(=O)c1cc(Cl)cc(C(F)(F)F)c1)c1nccnc1-n1cc(C#N)cn1` (racemic) [Example I-105, (rac)-3-Chloro-N-{1-[3-(4-cyano-1H-pyrazol-1-yl)pyrazin-2-yl]ethyl}-5-(trifluoromethyl)benzamide], the pest or weed control at 32 µg/disc, 100 g/ha in test [1] amounted to 100%. Moreover, in test [2], the mortality at 100 g/ha was determined as 100%.

As for `CC(NC(=O)c1cc(Br)cc(Br)c1)c1nccnc1-n1cc(C#N)cn1` (racemic) [Example I-106, (rac)-3,5-Dibromo-N-{1-[3-(4-cyano-1H-pyrazol-1-yl)pyrazin-2-yl]ethyl}benzamide], in test [1], the pest or weed control at 6.4 µg/disc, 20 g/ha came out at 100% and the pest or weed control at 32 µg/disc, 100 g/ha was found to be 100%. In test [2], the mortality at 100 g/ha was found to be 100%.

Take `CCS(=O)(=O)c1cc(Cl)cc(C(=O)NC(C)c2nccnc2-n2cc(C#N)cn2)c1` (racemic) [Example I-122, (rac)-3-Chloro-N-{1-[3-(4-cyano-1-pyrazol-1-yl)pyrazin-2-yl]ethyl}-5-(ethanesulfonyl)benzamide]: the pest or weed control at 1 µg/cm2, 100 g/ha in test [3] was found to be 90%. In test [2], this molecule registered a mortality at 100 g/ha of 100%.

With `Cc1cnc(C(C)NC(=O)c2cc(C(F)(F)F)cc(C(F)(F)F)c2)c(-c2ncc(C(=O)N(C)CC3CC3)s2)n1` (racemic) [Example I-125, (rac)-2-(3-{1-[3,5-Bis(trifluoromethyl)benzamido]ethyl}-6-methylpyrazin-2-yl)-N-(cyclopropylmethyl)-N-methyl-1,3-thiazole-5-carboxamide], in test [3], the pest or weed control at 1 µg/cm2, 100 g/ha was 100% and the pest or weed control at 5 µg/cm2, 500 g/ha is 100%. In test [2], this molecule yielded a mortality at 100 g/ha of 100%.

Consider `CC(NC(=O)c1cc(Cl)cc(S(=O)(=O)c2ccc(F)cc2)c1)c1nccnc1-n1cc(C#N)cn1` (racemic) [Example I-128, (rac)-3-Chloro-N-{1-[3-(4-cyano-1H-pyrazol-1-yl)pyrazin-2-yl]ethyl}-5-(4-fluorobenzene-1-sulfonyl)benzamide], for which, in test [3], the pest or weed control at 1 µg/cm2, 100 g/ha was 90% and the pest or weed control at 5 µg/cm2, 500 g/ha is 80%. In addition, the mortality at 100 g/ha in test [2] turned out to be 100%.

Regarding `CC(NC(=O)c1cc(C(F)(F)F)cc(C(F)(F)F)c1)c1nccnc1-n1cc(C(=O)N(C)C(C)C)cn1` (racemic) [Example I-136, (rac)-1-(3-{1-[3,5-Bis(trifluoromethyl)benzamido]ethyl}pyrazin-2-yl)-N-methyl-N-(propan-2-yl)-1H-pyrazole-4-carboxamide], in test [3], the pest or weed control at 1 µg/cm2, 100 g/ha is 100% and the pest or weed control at 5 µg/cm2, 500 g/ha worked out at 100%. Also, the mortality at 100 g/ha in test [2] came out at 100%.

For the molecule `CC(NC(=O)c1cc(Br)cc(OC(F)(F)F)c1)c1nccnc1-n1cc(C(=O)N(C)C(C)C)cn1` (racemic) [Example I-137, (rac)-1-(3-{1-[3-Bromo-5-(trifluoromethoxy)benzamido]ethyl}pyrazin-2-yl)-N-methyl-N-(propan-2-yl)-1H-pyrazole-4-carboxamide], in test [3], the pest or weed control at 1 µg/cm2, 100 g/ha worked out at 100% and the pest or weed control at 5 µg/cm2, 500 g/ha is 100%. The molecule further came in with a mortality at 100 g/ha in test [2] of 100%.

Regarding `CCN(C)C(=O)c1cnc(-c2ncc(C)nc2C(C)NC(=O)c2cc(C(F)(F)F)cc(C(F)(F)F)c2)s1` (racemic) [Example I-148, (rac)-2-(3-{1-[3,5-Bis(trifluoromethyl)benzamido]ethyl}-5-methylpyrazin-2-yl)-N-ethyl-N-methyl-1,3-thiazole-5-carboxamide], the mortality at 100 g/ha in test [2] came out at 100%.

The molecule `CCN(C)C(=O)c1cnc(-c2ncc(C)nc2C(C)NC(=O)c2cc(C(F)(F)F)nc(C(F)(F)F)c2)s1` (racemic) [Example I-151, (rac)-N-[1-(3-{5-[Ethyl(methyl)carbamoyl]-1,3-thiazol-2-yl)-6-methylpyrazin-2-yl)ethyl]-2,6-bis(trifluoromethyl)pyridine-4-carboxamide] displayed a mortality at 100 g/ha in test [2] of 100%.

`CCN(C)C(=O)c1cnc(-c2nc(C)cnc2C(C)NC(=O)c2cc(C(F)(F)F)cc(C(F)(F)F)c2)s1` (stereo in doubt) [Example I-157, (+)-2-(3-{(1S)-1-[3,5-bis(trifluoromethyl)benzamido]ethyl}-6-methylpyrazin-2-yl)-N-ethyl-N-methyl-1,3-thiazole-5-carboxamide] showed a mortality at 100 g/ha in test [2] of 100%.

Molecule `CCN(C)C(=O)c1cnc(-c2ncc(C)nc2[C@H](C)NC(=O)c2cc(C(F)(F)F)nc(C(F)(F)F)c2)s1` [Example I-159, (+)-N-[(1S)-1-(3-(5-[ethyl(methyl)carbamoyl]-1,3-thiazol-2-yl)-6-methylpyrazin-2-yl)ethyl]-2,6-bis(trifluoromethyl)pyridine-4-carboxamide] had a mortality at 100 g/ha in test [2] of 100%.
